In publication PMC8125885, “6,6′-Dihydroxythiobinupharidine (DTBN) Purified from Nuphar lutea Leaves Is an Inhibitor of Protein Kinase C Catalytic Activity” (Molecules, 2021):
Where two headings read alike, the source gives them in different places.

Experiments:
PKCα = molecular target: T1, PKCα (Homo sapiens, UniProt P17252); assay: In vitro kinase assay (32P-MBP phosphorylation by immunoprecipitated HA-tagged PKC); type: biochemical; conditions: MBP substrate, 100 μM cold ATP, 30 min at 32 °C
T1 construct: made in house; host or cells: HEK-293T
Description: (§1) To test the effect of DTBN on the activity of PKC isoforms, in vitro kinase assays were performed in a dose–response experiment, and results are presented in Figure 1. At these concentrations, the kinase activities of PKCs were inhibited by DTBN in a dose-dependent manner, having the most profound effect on conventional PKCα and PKCγ as compared to other PKCs tested (Figure 1 and Table 1). […] Immunoblotting was performed with antibodies against HA-tagged different PKCs and against Myelin Basic Protein (MBP) as a loading control.
(§2) Figure 1 DTBN downregulates PKC catalytic activity in a concentration-dependent manner. In vitro kinase assays of indicated PKC isoforms were performed, as described in Materials and Methods, utilizing MBP as a substrate. Before the initiation of the assay, DTBN was added to the samples at several concentrations. Following the termination of the assay, sample proteins were then resolved by SDS-PAGE and developed by autoradiography (a). p^32-MBP and MBP protein band signals were quantified using Image Lab software, and the relative amounts of p^32-MBP/MBP were presented in a line graph (b). Immunoblotting against HA and MBP to detect overexpressed PKC expression, and MBP, respectively, monitor equal loading of samples. Data are representative of two independent experiments. Molecular weight markers (in kDa) are indicated on the left, and arrows mark the positions of the indicated protein bands. IgH, Ig heavy chain.
(§3) PKC kinase assays were performed, as described, using myelin-basic protein (5 μg/100 μL) (MBP, #M1891, Sigma-Aldrich, St. Louis, MO, USA) as a substrate. Whole-cell lysates (75 μg per sample) of HEK-293T cells, each overexpressing different HA-tagged PKCs, were subjected to immunoprecipitation using protein A/G-agarose bead-immobilized anti-HA mAbs (#MMS-101R, BioLegend, San Diego, CA, USA). The immunoprecipitates were washed four times with Triton X-100-containing lysis buffer, and lastly with PKC kinase assay buffer (20 mM HEPES, pH 7.5, 10 mM MgCl2, and 0.1 mM EGTA). The immunoprecipitates were then equally divided to Eppendorf safe-lock tubes, followed by the addition of indicated concentrations of DTBN (μg/mL) and subsequent incubation in a kinase reaction mixture (10 mM ΜgCl2, 20 mM HEPES, 0.1 mM EGTA, 50 μg/mL phosphatidylserine, and 5μCi γ-32P-ATP (PerkinElmer, Waltham, MA, USA), also including 100 μM cold ATP and 1.5 mM CaCl2 (for conventional PKCs), and incubated for 30 min at 32 °C with gentle shaking. Reactions were terminated by the addition of 5× sample buffer and boiling for 5 min, followed by SDS-PAGE (10% acrylamide gels) under reducing conditions. Samples were then transferred to nitrocellulose membranes (Sigma-Aldrich) that were developed by immunoblotting and autoradiography. After the detection of the phosphorylated substrate (^32P-MBP) by autoradiography, the membranes were probed with anti-HA and anti-MBP mAbs (#SMI-99P, BioLegend, San Diego, CA, USA), (loading controls). ^32P-MBP and MBP protein bands were quantified using Image Lab software (5.2.1).

PKCγ = molecular target: T2, PKCγ (Homo sapiens, UniProt P05129); assay: as above; type: biochemical; conditions: MBP substrate, 100 μM cold ATP, 30 min at 32 °C
T2 construct: made in house; host or cells: HEK-293T
Description: as §1, §2, §3

PKCδ = molecular target: T3, PKCδ (Homo sapiens, UniProt Q05655); assay: as above; type: biochemical; conditions: MBP substrate, 100 μM cold ATP, 30 min at 32 °C
T3 construct: made in house; host or cells: HEK-293T
Description: as §1, §2, §3

PKCε = molecular target: T4, PKCε (Homo sapiens, UniProt Q02156); assay: as above; type: biochemical; conditions: MBP substrate, 100 μM cold ATP, 30 min at 32 °C
T4 construct: made in house; host or cells: HEK-293T
T4 sequence (Q02156 1-737): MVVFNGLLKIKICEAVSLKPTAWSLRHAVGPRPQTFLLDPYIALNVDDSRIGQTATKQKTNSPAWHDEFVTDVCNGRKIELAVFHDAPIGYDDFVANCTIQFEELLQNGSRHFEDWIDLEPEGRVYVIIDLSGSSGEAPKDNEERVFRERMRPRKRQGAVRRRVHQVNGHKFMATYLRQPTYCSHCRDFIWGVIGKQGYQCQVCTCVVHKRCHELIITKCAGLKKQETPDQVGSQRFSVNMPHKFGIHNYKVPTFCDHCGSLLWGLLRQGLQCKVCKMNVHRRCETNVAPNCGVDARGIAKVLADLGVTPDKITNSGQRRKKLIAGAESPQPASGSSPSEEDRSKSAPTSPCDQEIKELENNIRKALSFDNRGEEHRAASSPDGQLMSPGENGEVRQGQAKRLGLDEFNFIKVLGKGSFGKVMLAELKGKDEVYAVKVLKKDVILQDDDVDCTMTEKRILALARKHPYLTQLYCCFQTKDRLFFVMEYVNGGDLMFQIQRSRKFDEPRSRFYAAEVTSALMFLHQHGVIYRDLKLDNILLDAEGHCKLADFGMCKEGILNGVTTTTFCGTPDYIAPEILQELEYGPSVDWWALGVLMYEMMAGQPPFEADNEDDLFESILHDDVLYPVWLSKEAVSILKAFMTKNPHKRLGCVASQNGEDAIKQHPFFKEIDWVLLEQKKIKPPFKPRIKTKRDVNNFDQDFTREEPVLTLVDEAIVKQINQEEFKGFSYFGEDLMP
Description: as §1, §2, §3

PKCζ = molecular target: T5, PKCζ (Homo sapiens, UniProt Q05513); assay: as above; type: biochemical; conditions: MBP substrate, 100 μM cold ATP, 30 min at 32 °C
T5 construct: made in house; host or cells: HEK-293T
T5 sequence (Q05513 1-592): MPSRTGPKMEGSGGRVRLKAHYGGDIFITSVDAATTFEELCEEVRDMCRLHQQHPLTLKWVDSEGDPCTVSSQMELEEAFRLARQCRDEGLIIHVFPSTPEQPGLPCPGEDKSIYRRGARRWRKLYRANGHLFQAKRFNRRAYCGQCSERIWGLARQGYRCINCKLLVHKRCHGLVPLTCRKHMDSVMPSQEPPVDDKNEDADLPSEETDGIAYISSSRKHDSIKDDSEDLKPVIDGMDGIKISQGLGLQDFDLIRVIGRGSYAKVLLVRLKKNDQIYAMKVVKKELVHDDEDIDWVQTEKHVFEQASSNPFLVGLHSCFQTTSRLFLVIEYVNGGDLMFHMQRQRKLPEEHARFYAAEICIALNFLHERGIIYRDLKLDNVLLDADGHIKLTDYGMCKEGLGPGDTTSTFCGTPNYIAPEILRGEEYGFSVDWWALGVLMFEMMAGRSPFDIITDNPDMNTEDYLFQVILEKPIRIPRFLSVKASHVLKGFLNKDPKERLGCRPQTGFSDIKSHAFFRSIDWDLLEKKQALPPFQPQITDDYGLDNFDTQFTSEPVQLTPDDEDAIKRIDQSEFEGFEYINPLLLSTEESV
Description: as §1, §2, §3

PKCη [1] = molecular target: T6, PKCη (Homo sapiens, UniProt P24723); assay: as above; type: biochemical; conditions: MBP substrate, 100 μM cold ATP, 30 min at 32 °C
Description: as §1, §2, §3

PKCη [2] = molecular target: T6, PKCη; set-up: method as in PMID 22078216; conditions: co-crystallized inhibitor at PKCη; cited from earlier work
[3] = read-out: IC50 Values (μg/mL) (converted)

T6 sequence (P24723 whole entry): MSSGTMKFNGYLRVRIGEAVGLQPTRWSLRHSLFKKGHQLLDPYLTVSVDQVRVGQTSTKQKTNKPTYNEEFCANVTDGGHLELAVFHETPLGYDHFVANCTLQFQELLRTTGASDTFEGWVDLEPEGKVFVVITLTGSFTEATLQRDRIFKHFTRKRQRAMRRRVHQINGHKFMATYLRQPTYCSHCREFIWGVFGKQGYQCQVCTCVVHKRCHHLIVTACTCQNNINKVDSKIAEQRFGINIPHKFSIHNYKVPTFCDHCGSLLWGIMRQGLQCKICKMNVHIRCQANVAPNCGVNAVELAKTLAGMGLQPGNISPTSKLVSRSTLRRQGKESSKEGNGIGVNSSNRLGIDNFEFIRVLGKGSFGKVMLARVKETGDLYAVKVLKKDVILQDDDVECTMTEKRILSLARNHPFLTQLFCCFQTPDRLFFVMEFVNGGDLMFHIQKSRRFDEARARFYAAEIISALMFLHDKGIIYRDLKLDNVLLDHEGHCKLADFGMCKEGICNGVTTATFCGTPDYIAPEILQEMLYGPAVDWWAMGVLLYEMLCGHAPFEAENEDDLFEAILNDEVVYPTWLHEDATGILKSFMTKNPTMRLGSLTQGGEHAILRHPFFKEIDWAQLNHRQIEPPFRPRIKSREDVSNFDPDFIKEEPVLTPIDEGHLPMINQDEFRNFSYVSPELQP
T3 sequence (Q05655 whole entry): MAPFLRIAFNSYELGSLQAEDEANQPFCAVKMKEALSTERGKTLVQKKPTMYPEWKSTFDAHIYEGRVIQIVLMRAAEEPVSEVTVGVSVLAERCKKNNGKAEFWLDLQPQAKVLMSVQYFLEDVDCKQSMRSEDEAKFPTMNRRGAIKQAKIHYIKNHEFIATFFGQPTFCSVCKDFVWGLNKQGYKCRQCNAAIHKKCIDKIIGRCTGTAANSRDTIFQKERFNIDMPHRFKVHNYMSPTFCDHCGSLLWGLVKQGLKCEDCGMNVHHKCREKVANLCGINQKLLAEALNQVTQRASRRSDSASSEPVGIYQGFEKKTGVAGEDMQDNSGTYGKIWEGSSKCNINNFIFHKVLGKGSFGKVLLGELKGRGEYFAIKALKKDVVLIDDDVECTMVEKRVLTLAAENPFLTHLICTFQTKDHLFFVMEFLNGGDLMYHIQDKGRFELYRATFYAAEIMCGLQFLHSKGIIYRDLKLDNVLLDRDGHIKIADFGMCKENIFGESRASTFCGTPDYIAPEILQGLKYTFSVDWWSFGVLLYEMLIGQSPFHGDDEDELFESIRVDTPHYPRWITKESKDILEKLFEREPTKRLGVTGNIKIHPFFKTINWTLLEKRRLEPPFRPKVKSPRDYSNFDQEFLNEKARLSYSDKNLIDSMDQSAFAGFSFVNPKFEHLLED

SMILES | IC50 (PKCα; read-out: IC50 Values) | IC50 (PKCα; [3]) | IC50 (PKCγ; read-out: IC50 Values) | IC50 (PKCγ; [3]) | IC50 (PKCδ; read-out: IC50 Values) | IC50 (PKCδ; read-out: IC50 Values (μg/mL)) | IC50 (PKCε; read-out: IC50 Values) | IC50 (PKCε; [3]) | IC50 (PKCζ; read-out: IC50 Values) | IC50 (PKCζ; [3]) | IC50 (PKCη [1]; read-out: IC50 Values) | IC50 (PKCη [1]; read-out: IC50 Values (μg/mL)) | IC50 (PKCη [2])
CC1CCC(c2ccoc2)N2C1CCC1(CSC3(CCC4C(C)CCC(c5ccoc5)N4C3O)C1)C2O (stereo not shown) [DTBN, 6,6′-dihydroxythiobinupharidine] | 0.174 µM | 0.175 µM | 0.168 µM | 0.169 µM | > 19 µM | > 19 µM | 14.2 µM | 14.2 µM | 18.6 µM | 18.6 µM | > 19 µM | > 19 µM | –
c1cc2cnccc2cn1 [2,6-Naphthyridine] | – | – | – | – | – | – | – | – | – | – | – | – | 0.009 µM
